Measured values from patent US20090137527A1, “Compositions and methods for modulating immune function” (Resolvyx Pharmaceuticals, Inc., priority 2007, published 2009).
Read-outs that look alike come from different tables or passages of the source.

What was measured:
[1] = test system: spleen cells; assay: In vitro treatment of mouse spleen cells, CD3-induced cytokine production; format: cell-based; conditions: 10 nM or 1000 nM, 5 days culture, then anti-CD3 overnight
Description: BALB/c female mice, 6-8 weeks old, were euthanized and spleens were removed under sterile conditions. Spleens were gently pressed through a nylon strainer. Spleen cells and remaining connective tissue mass were incubated in a 6-well plate with 4 mL of Growth Media (RPMI 1640 supplemented with 10% FCS). Compound X was added to give a final concentration of 10 nM or 1000 nM. Control groups were spleen cells without addition of Compound X. All groups were in triplicates (3 animals per group). Plates were cultured in a 37° C., 5% CO2 incubator. Once a day, 1 mL of culture media was removed from each well and replaced with 1 mL fresh growth media containing the same concentration of Compound X or fresh media only. Culture was continued for 5 days. All cells were then removed from the plates. Cells were passed through a nylon strainer to remove any aggregates, washed, counted and adjusted to 2.5×10^6/mL in growth media. To anti-CD3 coated plates (coated per the procedure described below) were added 200 μL, or 5×10^5 cells per well. Cells were cultured in a 37° C., 5% CO2 incubator overnight. Supernatants were harvested, and cytokine levels were measured by Bioplex.
(§1) For CD3 stimulation, anti-mouse CD3 mAb (BD Pharmingen clone 145-2C11) was used at 0.2 μg/mL in PBS to coat flat bottom 96-well plate at 4° C. overnight. Plates were rinsed twice with PBS before use.

[2] = test system: CD3-stimulated mouse splenocytes; assay: Ex vivo anti-CD3 stimulated cytokine production of mouse spleen cells after in vivo dosing; conditions: for inhibition at 0.03 mg/kg: Mus musculus, Splenocyte, iv, single i.v. 0.03 mg/kg, 30 min before harvest, vs vehicle
Description: BALB/c female mice (n=5), 6-8 weeks old, were given either i.v. injection of Compound X or vehicle once a day for 5 days or a single i.v. injection of Compound X or vehicle. Thirty minutes after the last injection, spleens were removed under sterile conditions, and a single cell suspension was made by pressing through a nylon strainer (BD Falcon Cat# 352340). Cells were spun at 1500 rpm for 10 minutes, and the liquid was aspirated. RBC was lysed by adding 3 mL of ACK solution (Lonza Cat# 10-458E) for 5 minutes. The tube was filled with RPMI media and spun. Cells were resuspended in RPMI/10% FCS. To plates pre-coated with anti-CD3 (per the procedure described below) were added 4×10^5 cells per well. Supernatants were harvested after 18 hours of culture. Cytokine levels were measured by Bioplex (Biorad), according to manufacturer's instructions.
as §1
To measure this effect, mice were given daily i.v. injections of 0.3 mg/kg of Compound X for five days. Spleen cells were then harvested and stimulated with anti-CD3 antibody in vitro overnight.
Mice were given a single i.v. injection of 0.03 mg/kg Compound X 30 minutes before spleen cells were harvested. T cells were isolated by magnetic beads, and the purity of T cells was >95% as measured by flow cytometry. Spleen cells or purified T cells were stimulated with 0.2 μg/mL anti-CD3 overnight, and cytokine levels were measured by Bioplex.
The ability of in vivo treatment with Compound X to inhibit anti-CD3 stimulated cytokine production was measured by treating mice (n=5) with a single i.v. injection of 0.03 mg/kg of Compound X thirty minutes before spleens were harvested. Spleen cells were stimulated with anti-CD3 mAb overnight, and cytokine levels were measured by Bioplex. The resulting percent inhibition of cytokine production by total spleen cells as compared with vehicle treated animals is shown in Table 2. These studies indicate that Compound X, when dosed to naïve animals, inhibited ex vivo CD3-stimulated cytokine production in splenocytes by approximately 35-60%.

SMILES: CC[C@@H](O)/C=C/C=C\C[C@@H](O)/C=C/C=C/C=C\[C@@H](O)CCCC(=O)O [Compound X]
- CD3-induced cytokine production of spleen cells after in vitro treatment [1]: inhibited
- inhibition at 0.03 mg/kg ([2]; anti-CD3 overnight, read-out: % Inhibition of IL-6 production by total spleen cells): 55.2%
- inhibition at 0.03 mg/kg ([2]; anti-CD3 overnight, read-out: % Inhibition of IL-13 production by total spleen cells): 68.3%
- inhibition at 0.03 mg/kg ([2]; anti-CD3 overnight, read-out: % Inhibition of INFγ production by total spleen cells): 78.5%
- inhibition at 0.03 mg/kg ([2]; anti-CD3 overnight, read-out: % Inhibition of Il-2 production by total spleen cells): 62.6%
- inhibition at 0.03 mg/kg ([2]; anti-CD3 overnight, read-out: % Inhibition of Il-4 production by total spleen cells): 64.9%
- inhibition at 0.03 mg/kg ([2]; anti-CD3 overnight, read-out: % Inhibition of MIP1α production by total spleen cells): 42.7%
- inhibition at 0.03 mg/kg ([2]; anti-CD3 overnight, read-out: % Inhibition of MIP1β production by total spleen cells): 46.1%
- inhibition at 0.03 mg/kg ([2]; anti-CD3 overnight, read-out: % Inhibition of RANTES production by total spleen cells): 37.2%
- inhibition at 0.03 mg/kg ([2]; anti-CD3 overnight, read-out: % Inhibition of TNFα production by total spleen cells): 50.7%
- cytokine release of CD3-stimulated mouse splenocytes ([2]; daily i.v. 0.3 mg/kg for five days, anti-CD3 overnight): inhibits
- inhibition of ex vivo CD3-stimulated cytokine production in splenocytes ([2]; dosed to naïve animals, summary of studies): 35-60%
- CD3-induced cytokine release, spleen cells or purified T cells ([2]; single i.v. 0.03 mg/kg 30 minutes before harvest, 0.2 μg/mL anti-CD3 overnight): reduction
